Data published in patent US12233047B2, “Pharmaceutical combination and use thereof” (ASCENTAGE PHARMA (SUZHOU) CO., LTD., priority 2019, dated 2025).

What was measured:
[1] = system: Human AML cell line MV-4-11 (FLT3-ITD positive and wild type TP53 gene); experiment: Human MV-4-11 AML subcutaneous mouse xenograft model; type: in vivo; settings: MV-4-11 subcutaneous xenograft, Compound 23 10 mg/kg, Compound C 30 mg/kg
Procedure: The formulation of Compound C was prepared as homogenous suspension in 0.2% HPMC using a mortar. The drug suspension was prepared every three days or once a week and placed at 4° C. when not in use. Before use, the drug suspension was placed at room temperature and shaken to mix well. The formulation of Compound C was administered to mice via p.o. in a volume of 10 mL/kg. […] The drug suspension was prepared once every other day and placed at 4° C. when not in use. Before use, the drug suspension was placed at room temperature and shaken well. […] MV-4-11 cells (Human AML cell line MV-4-11 (FLT3-ITD positive and wild type TP53 gene)) were maintained in IMDM (Cat. C12440500BT, GIBCO), with 10% fetal bovine serum (Cat. 10099-141, GIBCO), 1% L-glutamine, 100 U/mL penicillin G and 100 μg/mL streptomycin (Cat. GNM15140, Hangzhou Geno Biomedical Technology Co., Ltd). Cells were incubated at 37° C. in a humidified incubator with 5% CO2. Six to eight weeks old, female, NOD SCID and BALB/c nude mice were used. Animals were obtained from Vital River Laboratories (VRL, Beijing, China, license number SCXK(J) 2012-0001 and SCXK(J) 2016-0006). The body weights were 17-24 g. Randomization was conducted when the size of xenograft tumors reached 100-150 mm^3. Based on the size of the tumor and body weight, animals were randomly assigned into experimental groups. […] MV-4-11 subcutaneous xenograft models were established by subcutaneously injecting tumor cells (1×10^7 cells (50% Matrigel)/mouse) into the right flank of the mouse under the sterile condition. When the tumors reached an appropriate size (100-200 mm^3), mice were randomized into 6 mice per group and treatment was initiated (day 1) according to Table 4. [table] The tumors sizes and animal body weights were measured twice a week. Tumor volumes were estimated from measurements of two diameters of the individual tumors as follows: Tumor Volume (mm^3)=(a×b^2)/2 Relative tumor volume (RTV) were calculated according to the follows: RTV=Vt/V1 where V1 and Vt were respectively the average tumor volume on the first day of treatment (day 1) and the average tumor volume on a certain time point (day T). Standard NCI procedures were used to calculate tumor parameters (Teicher, B. A. (2011). “Tumor Models in Cancer Research.” Second Edition, Human Press). Percent tumor growth inhibition (% T/C) was calculated as the mean RTV of treated tumors (T) divided by the mean RTV of control tumors (C)×100%. […] A body weight loss (mean of group) of greater than 20%, or greater than 20% of drug deaths are considered to indicate an excessively toxic dosage. The synergistic analysis was performed using the following formula described in Clarke R. Issues in experimental design and endpoint analysis in the study of experimental cytotoxic agents in vivo in breast cancer and other models[J]. Breast Cancer Research & Treatment, 1997, 46(2-3):255-278, which is incorporated by reference in its entirety: expected value=(A/C)×(B/C); actual value=(AB)/C; A: RTV of drug A; B: RTV of drug B; C=RTV of the vehicle control group; AB=RTV of the combination group. Ratio=expected/actual value. […] A ratio=1 indicates the two drugs have additive effects. A ratio <1 indicates the two drugs may have antagonist effects. According to the earlier publication (Gao, H., et al. (2015). “High-throughput screening using patient-derived tumor xenografts to predict clinical trial drug response” Nat Med 21: 1318), additional measurements of response included stable disease (SD), partial tumor regression (PR), and complete regression (CR) were determined by comparing tumor volume change at day t to its baseline: tumor volume change (%)=(Vt−V1)/V1. […] For each time t, the average of tumor volume change from t=1 to t was also calculated. […]

[2] = system: Human AML cell line MOLM-13 (FLT3-ITD positive and wild type TP53 gene); experiment: Human MOLM-13 AML systemic mouse xenograft model, survival; type: in vivo; settings: MOLM-13 systemic model, Compound 23 10 mg/kg, Compound C 20 mg/kg, p.o. q2d × 21 d
Procedure: The formulation of Compound C was prepared as homogenous suspension in 0.2% HPMC using a mortar. The drug suspension was prepared every three days or once a week and placed at 4° C. when not in use. Before use, the drug suspension was placed at room temperature and shaken to mix well. The formulation of Compound C was administered to mice via p.o. in a volume of 10 mL/kg.
The formulation of Compound 23 was prepared in 0.2% HPMC in a mortar to generate homogenous suspension. The drug suspension was prepared once every other day and placed at 4° C. when not in use. Before use, the drug suspension was placed at room temperature and shaken well. The formulation of Compound 23 was administered to mice via p.o. in a volume of 10 mL/kg.
MOLM-13 cell lines (Human AML cell line MOLM-13 (FLT3-ITD positive and wild type TP53 gene)) were maintained in RPMI-1640 (Cat. C11875500BT, GIBCO) with 10% fetal bovine serum (Cat. 10099-141, GIBCO), 1% L-glutamine, 100 U/mL penicillin G and 100 μg/mL streptomycin (Cat. GNM15140, Hangzhou Geno Biomedical Technology Co., Ltd). Cells were incubated at 37° C. in a humidified incubator with 5% CO2.
Six to eight weeks old, female, NOD SCID and BALB/c nude mice were used. Animals were obtained from Vital River Laboratories (VRL, Beijing, China, license number SCXK(J) 2012-0001 and SCXK(J) 2016-0006). The body weights were 17-24 g.
MOLM-13 systemic tumor model were established by injecting tumor cells into the tail vein (10×10^6 cells/mouse) under the sterile condition. To establish the MOLM-13 systemic model, all animals were intraperitoneally injected (i.p.) with cyclophosphamide (150 mg/kg) for two consecutive days before the inoculation of MOLM-13 cells. On the third day after cell inoculation, animals were randomized into 10 mice per group and treatment was initiated (day 1) according to Table 2.
The animals were euthanized when the experimental animals had symptoms such as weight loss and weight loss greater than 20%, limb paralysis, tumor metastasis to the eye causing ocular protrusion, tumor metastasis to the abdominal cavity causing abdominal enlargement. These severe health issues were considered as the same as animal death caused by tumor growth and the affected animals were sacrificed immediately.
The date of the last mouse died (the last measurement) was used for analysis of median overall survival and the generation of Kaplan-Meier plots. Survival curves of different treatment groups were compared using log-rank test with Bonferroni's multiple test. All data were analyzed in SPSS version 18.0 (IBM, Armonk, NY, U.S.A.). Prism version 6 (GraphPad Software Inc., San Diego, CA, U.S.A.) was used for graphic presentation.

CCN1[C@@H](C(=O)NC23CCC(C(=O)O)(CC2)CC3)[C@H](c2cccc(Cl)c2F)[C@]2(C(=O)Nc3cc(Cl)ccc32)C12CCCCC2 [Compound C]
Tumor weight on D 22 (Mean ± SEM) ([1]; day 22, p.o. q2d × 22 d, vehicle 2.29 ± 0.29, in g (unit assumed)): 1.45 ± 0.32
T/C(%)@D 22 ([1]; mean RTV treated/control, day 22, p.o. q2d): 59.6%
RTV@D 22 ([1]; relative tumor volume day 22, p.o. q2d, vehicle 18.2 ± 3.3): 10.8 ± 1.6
Median survival time of mice ([2]; vehicle 19 days): 25.5 days
Prolonged survival time of mice ([2]; versus vehicle): 6.5 days
